According to US6953786B2, “Compositions comprising plant-derived polyphenolic compounds and inhibitors of reactive oxygen species and methods of using thereof” (The Regents of the University of California, priority 2002, dated 2005):

How the values were obtained:
cytochrome c [1] = test: Mitochondrial cytochrome c release (Western blot); format: cell-based, rat; conditions: BSp73AS, 6 hours, 100 μM
Experimental: In order to determine the effects polyphenolic compounds have on mitochondrial cytochrome c release and apoptosis, the following assay was conducted. BSp73AS cells were cultured for 6 hours and Mia PACA-2 cells were cultured in the absence of serum or growth factors for 24 hours in the absence or presence of 100 μM of each rutin, trans-resveratrol, genistein, or quercetin. Cells were washed twice with ice-cold PBS, pH 7.2 and resuspended in extraction buffer, about 500 μl, comprising 20 mM HEPES-KOH (pH 7.0), 10 mM KCl, 1 mM […], 2 mM MgCl2, 1 mM EDTA, 1 mM DTT, 250 mM sucrose, 1 mM PMSF and protease inhibitors cocktail as provided above. The lysate was incubated for 30 minutes on ice and then homogenized using a glass dounce (80 strokes). Nuclei were removed by centrifugation at 1,000 g for 10 minutes at 4° C. Supernatant was additionally centrifuged for 1 hour at 100,000 g and the resulting supernatant (cytosolic fraction) and pellet (mitochondrial fraction) were collected separately, subjected to SDS-PAGE, and Western blotting using an antibody against cytochrome c. The experiment was repeated twice with similar results.

cytochrome c [2] = test: Mitochondrial cytochrome c release (Western blot); format: cell-based, human; conditions: Mia PACA-2, 24 hours, 100 μM, no serum
Experimental: In order to determine the effects polyphenolic compounds have on mitochondrial cytochrome c release and apoptosis, the following assay was conducted. BSp73AS cells were cultured for 6 hours and Mia PACA-2 cells were cultured in the absence of serum or growth factors for 24 hours in the absence or presence of 100 μM of each rutin, trans-resveratrol, genistein, or quercetin. Cells were washed twice with ice-cold PBS, pH 7.2 and resuspended in extraction buffer, about 500 μl, comprising 20 mM HEPES-KOH (pH 7.0), 10 mM KCl, 1 mM NaEGTA, 2 mM MgCl2, 1 mM EDTA, 1 mM DTT, 250 mM sucrose, 1 mM PMSF and protease inhibitors cocktail as provided above. The lysate was incubated for 30 minutes on ice and then homogenized using a glass dounce (80 strokes). Nuclei were removed by centrifugation at 1,000 g for 10 minutes at 4° C. Supernatant was additionally centrifuged for 1 hour at 100,000 g and the resulting supernatant (cytosolic fraction) and pellet (mitochondrial fraction) were collected separately, subjected to SDS-PAGE, and Western blotting using an antibody against cytochrome c. The experiment was repeated twice with similar results.
In order to determine the role of the cancer cell's PTP in the effects of the polyphenolic compounds on mitochondrial function, caspase-3 activation and apoptosis, we performed the following experiments. Mia PACA-2 cells were cultured in the absence of serum or growth factors for 24 hours in the presence or absence of quercetin (100 μM), trans-resveratrol (100 μM), Z-VAD FMK (50 μM), cyclosporin A (5 μM) and/or aristolochic acid (50 μM). Cells were collected, washed with ice-cold PBS and resuspended in lysis buffer comprising 0.5% Nonidet P-40 or manufactured by the name IGEPAL CA-630, 0.5 mM EDTA, 150 mM NaCl and 50 mM Tris at pH 7.5. Cell lysates were placed for 30 minutes on a rotator at 4° C. and then centrifuged for 15 minutes at 15,000 g. Cytosolic protein extracts (supernatants) were collected, protein concentrations were determined and the extracts were aliquoted and stored at −80° C. Cytosolic extracts were subjected to SDS-PAGE and Western blot was performed with an antibody against cytochrome c. Blots were then stripped and re-probed with an antibody against tubulin to confirm equal protein loading. The experiment was repeated twice with similar results.
In order to determine the effect of a combination of trans-resveratrol and quercetin on cytochrome c release and caspase-3 activity, the following was conducted. Mia PACA-2 cells were cultured in the absence of serum or growth factors for 24 hours in the presence or absence of trans-resveratrol (25 μM), quercetin (25 μM), or the combination of trans-resveratrol (25 μM) and quercetin (25 μM). Cytosolic extracts were prepared and subject to SDS-PAGE followed by protein transfer. Immunoblot was performed with an antibody against tubulin to confirm equal protein loading.

BSp73AS cells = test: Mitochondrial membrane potential, DiOC6(3) retention; format: cell-based, rat; conditions: 6 hours (FIG. 10A)
Experimental: (§1) In order to determine the effects polyphenolic compounds have on mitochondrial membrane potential, the retention of the dye 3,3′-dihexyloxacarbocyanine (DiOC6(3)) was measured as described by Pastorino J G, et al. (1998) J Biol Chem 273:7770-7775, which is herein incorporated by reference. BSp73AS cells were cultured for 6 hours in the absence (control) or presence of 0, 12, 24, 50, and 100 μM quercetin and trans-resveratrol. The cells were loaded with 1 μM DiOC6(3) during the last 30 minutes of treatment with a polyphenolic compound (or vehicle). The cells were then collected and pelleted by centrifugation. The supernatant was removed and the pellet was washed twice with PBS by alternate centrifugation and resuspension. The pellet was then lysed by addition of 1 ml of H2O and homogenized. The concentration of DiOC6(3) was read on a Perkin-Elmer LS-5 fluorescence spectrometer at 488 nm excitation and 500 nm emission. An aliquot of the cells was used for determining the DiOC6(3) fluorescence that was retained by the cells.

Mia PACA-2 cells = test: as above; format: cell-based, human
Experimental: as §1
Mia PACA-2 cells were cultured for 72 hours in the presence of serum and trans-resveratrol or genistein in the presence or absence of DPI or Tiron. Mitochondrial membrane potential was measured as described above.

[3] = Mia PACA-2, 72 hours, in the presence of serum (FIG. 11)
[4] = Mia PACA-2, no serum (FIG. 10B)

Row | SMILES | cytosolic and mitochondrial cytochrome c (cytochrome c [1]) | cytosolic and mitochondrial cytochrome c (cytochrome c [2]) | mitochondrial membrane potential (BSp73AS cells) | mitochondrial membrane potential (Mia PACA-2 cells; [3]) | mitochondrial membrane potential (Mia PACA-2 cells; [4])
1 | O=c1c(-c2ccc(O)cc2)coc2cc(O)cc(O)c12 [genistein] | caused increases in cytosolic cytochrome c and decreases in mitochondrial cytochrome c | caused increases in cytosolic cytochrome c and decreases in mitochondrial cytochrome c | caused dissipation of the mitochondrial membrane potential | no effects on mitochondrial membrane potential | caused dissipation of the mitochondrial membrane potential
2 | O=c1c(O)c(-c2ccc(O)c(O)c2)oc2cc(O)cc(O)c12 [quercetin] | caused increases in cytosolic cytochrome c and decreases in mitochondrial cytochrome c | caused increases in cytosolic cytochrome c and decreases in mitochondrial cytochrome c | caused dissipation of the mitochondrial membrane potential |  | caused dissipation of the mitochondrial membrane potential
3 | Oc1ccc(/C=C/c2cc(O)cc(O)c2)cc1 [trans-resveratrol] | caused increases in cytosolic cytochrome c and decreases in mitochondrial cytochrome c | caused increases in cytosolic cytochrome c and decreases in mitochondrial cytochrome c | caused dissipation of the mitochondrial membrane potential | no effects on mitochondrial membrane potential | caused dissipation of the mitochondrial membrane potential
